Data: publication PMC12021657, “Rapid traversal of vast chemical space using machine learning-guided docking screens” (Nature Computational Science, 2025)
Where two headings read alike, the source gives them in different places.

Experiments:
[1] = target: T1, Human A2AR (Homo sapiens, UniProt P29274); assay: Human A2AR competition radioligand binding ([3H]-ZM241385, HeLa-A2A membranes); details: for A2AR radioligand displacement at 20 µM (%): 20 µM compound, mean ± SEM of two technical replicates
T1 construct: expressed in transfected cells; host or cells: HeLa-A2A cell line (membranes prepared in house, lot A003/14-04-2019)
T1 sequence (P29274 whole entry): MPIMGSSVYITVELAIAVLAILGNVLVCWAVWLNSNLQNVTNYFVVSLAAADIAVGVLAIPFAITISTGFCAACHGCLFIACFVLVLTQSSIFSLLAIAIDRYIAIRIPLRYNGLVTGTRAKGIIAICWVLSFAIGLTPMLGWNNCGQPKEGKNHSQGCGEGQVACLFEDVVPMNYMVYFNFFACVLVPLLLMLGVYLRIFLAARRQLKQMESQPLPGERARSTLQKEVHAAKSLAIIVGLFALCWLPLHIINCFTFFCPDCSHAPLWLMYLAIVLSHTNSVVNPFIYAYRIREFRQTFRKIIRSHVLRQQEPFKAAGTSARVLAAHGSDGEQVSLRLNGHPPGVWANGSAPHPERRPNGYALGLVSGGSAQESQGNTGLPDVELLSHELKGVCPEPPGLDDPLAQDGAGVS
Experimental: (§1) Screening compounds (Supplementary Tables 10 and 12) were purchased from Enamine (compound purity >90%, which was confirmed by liquid chromatography−mass spectrometry and ^1H NMR spectroscopy for identified ligands; Supplementary Figs. 19–30). Human D2R competition binding experiments were carried out in polypropylene 96-well plates. Each well contained 20 µg of membranes from a CHO-D2R #S20 cell line (protein concentration of 4,322 µg ml^−1), 1.5 nM [^3H]-spiperone (54.3 Ci mmol^−1, 1 mCi ml^−1, PerkinElmer NET1187250UC) and the compound studied. Non-specific binding was determined in the presence of 10 µM sulpiride (Sigma Aldrich S8010). The reaction mixture (250 µl per well) was incubated at 25 °C for 120 min, after which 200 µl was transferred to a GF/C 96-well plate (Millipore) pretreated with 0.5% PEI and treated with binding buffer (50 mM Tris-HCl, 1 mM EDTA, 5 mM MgCl2, 5 mM KCl, 120 mM NaCl, pH 7.4). The reaction mixture was filtered and washed 4 times with 250 µl wash buffer (50 mM Tris-HCl, 0.9% NaCl, pH 7.4) before the addition of 30 μl Universol. The final measurement was performed in a microplate beta scintillation counter (Microbeta Trilux, PerkinElmer). Human A2AR competition binding experiments were carried out in a multiscreen GF/C 96-well plate (Millipore) pretreated with binding buffer (Tris-HCl 50 mM, EDTA 1 mM, MgCl2 10 mM, 2 U ml^−1 adenosine deaminase, pH 7.4). Each well was incubated with 5 μg of membranes from the HeLa-A2A cell line and prepared in our laboratory (lot A003/14-04-2019, protein concentration 2,058 μg ml^−1), 1 nM [^3H]-ZM241385 (50 Ci mmol^−1, 1 mCi ml^−1, ARC-ITISA 0884), and the compounds studied and standards. Non-specific binding was determined in the presence of NECA 50 μM (Sigma E2387). The reaction mixture (total volume of 200 μl per well) was incubated at 25 °C for 30 min, then filtered and washed 4 times with 250 μl wash buffer (Tris-HCl 50 mM, EDTA 1 mM, MgCl2 10 mM, pH 7.4), and measured in a microplate beta scintillation counter (Microbeta Trilux, PerkinElmer). Unless stated otherwise, three independent experiments were carried out to calculate Ki values.

[2] = target: T2, Human D2R (Homo sapiens, UniProt P14416); assay: Human D2R competition radioligand binding ([3H]-spiperone, CHO-D2R #S20 membranes); details: for D2R radioligand displacement at 10 µM (%) / inhibition at 10 µM: 10 µM compound, mean ± SEM of two technical replicates; for inhibition at 10 µM: 2 h, read-out: D2R radioligand displacement at 10 µM (%); for Ki: mean ± SEM from three independent experiments
T2 construct: expressed in transfected cells
T2 sequence (P14416 whole entry): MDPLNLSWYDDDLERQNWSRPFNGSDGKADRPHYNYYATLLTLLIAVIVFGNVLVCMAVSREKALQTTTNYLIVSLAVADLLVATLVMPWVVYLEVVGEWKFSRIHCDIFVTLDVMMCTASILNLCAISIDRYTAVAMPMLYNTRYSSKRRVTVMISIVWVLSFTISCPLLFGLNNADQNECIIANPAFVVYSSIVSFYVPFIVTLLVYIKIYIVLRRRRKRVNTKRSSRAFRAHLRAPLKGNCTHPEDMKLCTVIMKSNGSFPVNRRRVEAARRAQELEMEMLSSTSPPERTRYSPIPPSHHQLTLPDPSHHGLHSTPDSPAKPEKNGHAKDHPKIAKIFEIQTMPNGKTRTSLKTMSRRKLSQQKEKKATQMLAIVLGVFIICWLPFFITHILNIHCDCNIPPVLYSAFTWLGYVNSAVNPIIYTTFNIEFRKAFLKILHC
Experimental: as §1

[3] = target: T2, Human D2R; assay: Human D2R functional cAMP assay (HTRF, CHO-D2 #S20 cells, forskolin); type: cell-based; details: for functional character at D2R: cAMP assay; for Emax: read-out: Emax (maximal effect)
Experimental: Human D2R activity was measured by determining the amount of cAMP produced. Human D2R functional experiments were carried out in a CHO-D2 #S20 cell line. Five-thousand cells were seeded in 30 μl of Optimem (Invitrogen 11058) + 500 μM IBMX (Sigma 17018) on a 96-well black-and-white isoplate (PerkinElmer 6005030). Test compounds and dopamine were added in their corresponding wells and incubated for 10 min at 37 °C with gentle stirring (150 r.p.m.). Then, 10 µM forskolin (Sigma 17018) was added and incubated for 5 min at 37 °C with gentle stirring (150 r.p.m.). Reagents from the kit (#CISBIO 62AM4PEC) were added and incubated for 1 h at room temperature with gentle stirring (90 r.p.m.) and protected from light. HTRF (excitation wavelength: 320 nm; emission wavelengths: 620–665 nm) from each well was measured using a Tecan Infinite M1000 Pro. Two independent experiments were carried out to calculate EC50 and Emax values.

[4] = xlsx sheet A2AR_Displacement, read-out: Ki (A2AR) printed in column Displacement at 20 uM (%)

Row | Structure (SMILES) | A2AR radioligand displacement at 20 µM (%) [1] [%] | other results
1 | NC(Cc1ccccc1Cl)C(=O)N1CC(C(=O)Nc2nccs2)C1 (stereo not shown) [Z6437654059, c1ccc(c(c1)CC(C(=O)N2CC(C2)C(=O)Nc3nccs3)N)Cl] | 3±2 | –
2 | NC(=NCCc1c(F)cccc1Br)Nc1ncccn1 [Z8854579363, c1cc(c(c(c1)Br)CCN=C(N)Nc2ncccn2)F] | 20±1 | –
3 | N[C@@H](CC(=O)Nc1nc2c(Br)cc(F)cc2[nH]1)Cc1ccccc1 [Z8854579338, c1ccc(cc1)C[C@H](CC(=O)Nc2[nH]c3cc(cc(c3n2)Br)F)N] | 49±2 | –
4 | NC(=NCc1nc(-c2ccccc2)n[nH]1)Nc1ccccn1 [Z2518713795, c1ccc(cc1)c2nc([nH]n2)CN=C(N)Nc3ccccn3] | 23±3 | –
5 | NC(=NCCCc1ccc(F)cc1)Nc1ncccn1 [Z8854579364, c1cnc(nc1)NC(=NCCCc2ccc(cc2)F)N] | 17±4 | –
6 | Cn1ccc(NC(=O)CNC(=O)C2Cc3c(Br)cccc3CN2)n1 (stereo not shown) [Z8854579367, Cn1ccc(n1)NC(=O)CNC(=O)C2Cc3c(cccc3Br)CN2] | 10±2 | –
7 | CCc1ccnc(NCC2CN(Cc3ccccc3)CC2C)n1 (stereo not shown) [Z5471612810, CCc1ccnc(n1)NCC2CN(CC2C)Cc3ccccc3] | 2±1 | –
8 | Cc1nc(NC(=O)C(N)Cc2cccc(Br)n2)[nH]c1C (stereo not shown) [Z6382061841, Cc1c(nc([nH]1)NC(=O)C(Cc2cccc(n2)Br)N)C] | 2±2 | –
9 | Cc1cccc(CC(N)C(=O)Nc2nc3c(Br)cc(F)cc3[nH]2)c1 (stereo not shown) [Compound 3, Cc1cccc(c1)CC(C(=O)Nc2[nH]c3cc(cc(c3n2)Br)F)N] | – | Ki [1, 4]: 2.5 µM
10 | Cc1ccncc1CNC(=O)C(N)Cc1c[nH]c2ncccc12 (stereo not shown) [Z8857701713, Cc1ccncc1CNC(=O)C(Cc2c[nH]c3c2cccn3)N] | 3±2 | –
11 | NC(=NCCOc1ccc(F)cc1)Nc1ncccn1 [Z8854579344, c1cnc(nc1)NC(=NCCOc2ccc(cc2)F)N] | 17±1 | –
12 | Cc1ccc(F)c(CCN=C(N)Nc2ncccn2)c1 [Z8854579366, Cc1ccc(c(c1)CCN=C(N)Nc2ncccn2)F] | 15±1 | –
13 | NC(=NCCc1ccccc1Cl)Nc1ncccn1 [Z8854579337, c1ccc(c(c1)CCN=C(N)Nc2ncccn2)Cl] | 29±4 | –
14 | Cc1cccc2[nH]c(NC(=O)C(N)Cc3csc4ccccc34)nc12 (stereo not shown) [Z8854579351, Cc1cccc2c1nc([nH]2)NC(=O)C(Cc3csc4c3cccc4)N] | 31±1 | –
15 | NC(=NCc1cc2ccccc2o1)Nc1ncccn1 [Z8854579345, c1ccc2c(c1)cc(o2)CN=C(N)Nc3ncccn3] | 32±2 | –
16 | CSc1ccc(CCN=C(N)Nc2ncccn2)cc1 [Z8854579356, CSc1ccc(cc1)CCN=C(N)Nc2ncccn2] | 15±1 | –
17 | O=C(NCc1nccc(=O)[nH]1)C1CCCN1Cc1ccccc1 (stereo not shown) [Z4219981720, c1ccc(cc1)CN2CCCC2C(=O)NCc3[nH]c(=O)ccn3] | 6±4 | –
18 | NC(=NCc1c(Cl)cccc1Cl)Nc1ncccn1 [Z8861112994, c1cc(c(c(c1)Cl)CN=C(N)Nc2ncccn2)Cl] | 32±2 | –

Row | Structure (SMILES) | A2AR radioligand displacement at 20 µM (%) [1] [%] | other results
19 | Cc1cccc2c1CC(C(=O)NCCNc1ncccn1)NC2 (stereo not shown) [Z8854579354, Cc1cccc2c1CC(NC2)C(=O)NCCNc3ncccn3] | 1±1 | –
20 | Cc1cc(NC(=O)c2cccn2CCN2CCOCC2)ns1 [Z3591989733, Cc1cc(ns1)NC(=O)c2cccn2CCN3CCOCC3] | 19±1 | –
21 | NC(=NCCOc1cccc(C(F)(F)F)c1)Nc1ncccn1 [Z8854579346, c1cc(cc(c1)OCCN=C(N)Nc2ncccn2)C(F)(F)F] | 23±1 | –
22 | Cc1cccc2[nH]c(NC(=O)C(N)Cc3cccc(Cl)c3)nc12 (stereo not shown) [Z8854579352, Cc1cccc2c1nc([nH]2)NC(=O)C(Cc3cccc(c3)Cl)N] | 57±4 | –
23 | NC(=NCCOc1ccc(F)cc1F)Nc1ncccn1 [Z8854579369, c1cnc(nc1)NC(=NCCOc2ccc(cc2F)F)N] | 2±3 | –
24 | NC(=NCc1ccsc1-n1cccc1)Nc1ncccn1 [Z8854579347, c1ccn(c1)c2c(ccs2)CN=C(N)Nc3ncccn3] | 32±4 | –
25 | NC(CC(=O)Nc1cc2ncccn2n1)C(=O)OCc1ccccc1 (stereo not shown) [Z8854579341, c1ccc(cc1)COC(=O)C(CC(=O)Nc2cc3ncccn3n2)N] | 2±2 | –
26 | O=C(CN1CC[C@H](Oc2ccccc2)C1)c1c[nH]c2nc(Cl)ccc12 [Compound 4, c1ccc(cc1)O[C@H]2CCN(C2)CC(=O)c3c[nH]c4c3ccc(n4)Cl] | – | Ki [1, 4]: 1.4 µM
27 | NC(=NCCc1cccc(Br)c1)Nc1ncccn1 [Z8854579355, c1cc(cc(c1)Br)CCN=C(N)Nc2ncccn2] | 28±1 | –
28 | CC(Cc1c[nH]c2ncccc12)NCc1nn(C)c2ccccc12 (stereo not shown) [Z7272600070, CC(Cc1c[nH]c2c1cccn2)NCc3c4ccccc4n(n3)C] | 20±1 | –
29 | NC(=NCCOc1ccc(F)c(Cl)c1)Nc1ncccn1 [Z8854579360, c1cnc(nc1)NC(=NCCOc2ccc(c(c2)Cl)F)N] | 26±3 | –
30 | NC(=NCCc1c(F)cccc1Cl)Nc1ncccn1 [Z8854579358, c1cc(c(c(c1)Cl)CCN=C(N)Nc2ncccn2)F] | 16±4 | –
31 | Fc1ccc(-n2ccc(CCNC3Cc4ccccc4C3)n2)cc1 [Compound 1, c1ccc2c(c1)CC(C2)NCCc3ccn(n3)c4ccc(cc4)F] | – | D2R radioligand displacement at 10 µM (%) ([2]; listed as Z1441695252): 59 ± 1%; inhibition at 10 µM [2]: 59 ± 1%; Ki [2]: 3 µM; EC50 ([3]; CHO-D2 #S20 cells, two independent experiments, read-out: EC50 (D2R-mediated changes in intracellular cAMP)): 10 µM; functional character at D2R [3]: full agonists; Emax [3]: 99%
32 | Cc1cnccc1CCN1CCC(Oc2ccccc2Cl)C1 (stereo not shown) [Compound 2, Cc1cnccc1CCN2CCC(C2)Oc3ccccc3Cl] | – | D2R radioligand displacement at 10 µM (%) ([2]; listed as Z2436421891): 56 ± 2%; inhibition at 10 µM [2]: 56 ± 2%; Ki [2]: 3.8 µM; EC50 [3]: 14 µM; functional character at D2R [3]: full agonists; Emax [3]: 100%
33 | NC(=NCCc1c[nH]c2c(Cl)cc(Cl)cc12)Nc1ncccn1 [Compound 5, c1cnc(nc1)NC(=NCCc2c[nH]c3c2cc(cc3Cl)Cl)N] | – | Ki [2]: 14 µM; Ki ([1]; fit to concentration-response curve from two technical replicates, compound 5 three independent experiments (mean ± SEM), read-out: Ki (A2AR)): ~20 µM
34 | O=c1[nH]c(NCC2CCN(CCc3ccccc3)C2)nc2ccsc12 (stereo not shown) [Z5332306614, c1ccc(cc1)CCN2CCC(C2)CNc3[nH]c(=O)c4c(n3)ccs4] | 8±1 | –
35 | COc1ccc(CCN=C(N)Nc2ncccn2)c(F)c1 [Z8854579362, COc1ccc(c(c1)F)CCN=C(N)Nc2ncccn2] | 12±4 | –
